# Experimental data as given in patent US9062002B2, “Substituted pyridine derivatives as FabI inhibitors” (Aurigene Discovery Technologies Limited, priority 2011, dated 2015).
# Assays:
# [1] = system: MSSA; assay: MIC by broth microdilution method; type: cell-based
# [2] = system: MRSA; assay: MIC by broth microdilution method; type: cell-based
# [3] = system: MRSE; assay: MIC by broth microdilution method; type: cell-based
# [4] = Metabolic stability study in mouse liver microsomes; type: in vitro ADME; details: 1 μM, 37° C.
# Experimental: The above selected compounds have protected mice from infection at ED50 doses. Metabolic Stability Study: In vitro metabolic stability of the compounds was done in mouse liver microsomes prepared in house as per standard protocol. Compounds were tested at 1 μM concentration. Compounds were incubated for 15 and 60 minutes at 37° C. with 100 rpm in shaker bath. After the incubation samples were analysed by LC/MS (API-4000). Respective control (Propranalol) was included in the study.
# [5] = system: Fab I; details: 1 μM compound
structure (smiles),measurement,setting,value
O=C1CCc2cc(/C=C/C(=O)N3CC=C(Cc4cccc(F)c4)CC3)cnc2N1 [Compound 65],MIC Vs MRSA (μg/ml) MSSA,[1],0.25 µg/mL
same,MIC Vs MRSA (μg/ml) MRSA,[2],0.25 µg/mL
same,MIC Vs MRSA (μg/ml) MRSE,[3],0.5 µg/mL
same,Percentage of compound remained after 15 min,[4],90.6%
same,Percentage of compound remained after 60 min,[4],75.0%
same,FAB-I inhibition %@1 μM,[5],90%
"O=C1CCNc2cc(/C=C/C(=O)N3CC=C(Cc4cccs4)CC3)cnc2N1 [Compound 91, (E)-8-(3-oxo-3-(4-(thiophen-2-ylmethyl)-5,6-dihydropyridin-1(2H)-yl)prop-1-en-1-yl)-2,3-dihydro-1H-pyrido[2,3-b][1,4]diazepin-4(5H)-one]",MIC,"[1]; Staphylococcus aureus, MRSA / MSSA, MSSA, broth microdilution, read-out: MIC Vs MRSA (μg/ml) MSSA",0.25 µg/mL
same,MIC,"[2]; Staphylococcus aureus, MRSA, broth microdilution, read-out: MIC Vs MRSA (μg/ml) MRSA",0.5 µg/mL
same,MIC,"[3]; Staphylococcus epidermidis, MRSA / MRSE, MRSE, broth microdilution, read-out: MIC Vs MRSA (μg/ml) MRSE",0.5 µg/mL
same,Percentage of compound remained after 15 min,[4],81.3%
same,Percentage of compound remained after 60 min,[4],79.3%
same,FAB-I inhibition %@1 μM,[5],93%
